The record followed here is article PMC7221806, “PF74 and Its Novel Derivatives Stabilize Hexameric Lattice of HIV-1 Mature-Like Particles” (Molecules, 2020).

What is called CC50 is the concentration at which the toxic effect on the cells reaches its halfway point. What is called IC50 is the concentration that gives 50% inhibition.

A short description of series [1]: Cytotoxicity, resazurin assay. To be noted: human, HEK 293T cells, 24 h treatment. Format: cell-based. For orientation: Alamar Blue is a resazurin reagent that responds to reducing activity.
The subject of series [2] is HIV-1. The experiment in a line: microbe, parasite or virus in culture. Format: cell-based. To be noted: for IC50: Human immunodeficiency virus 1, HEK293, 48 h.
For series [3], the target named is T1, HIV-1 CANC (Human immunodeficiency virus type 1 group M subtype B, UniProt P12493). Briefly: Disassembly inhibitor test for HIV (DITH), stability of preassembled CANC particles, with TEM. To be noted: 10 µM; for TEM of CANC particles after incubation in disassembly buffer: after DITH, negative staining; for relative stability of HIV-1 CANC assemblies in disassembly buffer: CANC without inhibitor in disassembly buffer = 0%.

Series [4] relates to HIV-1. In kind it is cell-based. As to conditions: OMK cells, 10 µM, 2.5 µM CsA.
The target of series [5] is T1, HIV-1 CANC. The experiment in a line: Fast Assembly Inhibitor Test for HIV (FAITH), in vitro assembly of mature-like particles, with TEM. To be noted: 10 µM; for TEM phenotype of CANC assembled in presence of inhibitor: after FAITH, negative staining.
Series [6] in a line: Cytotoxic effect on OMK cells. Format: cell-based. To be noted: owl monkey, OMK (owl monkey kidney) cells.

Structures are written as SMILES.

For the compound `CN(C(=O)[C@H](Cc1ccccc1)NC(=O)Cc1c[nH]c2ccccc12)c1ccccc1` [D1, (S)-2-(2-(1H-indol-3-yl)acetamido)-N-methyl-N,3-diphenylpropanamide], the CC50 at 24 h in series [1] was over 40 µM. For the same compound, in the series with HIV-1 [2], the “inhibitory activity against HIV-1 compared with PF74 (in words)” value is listed as “only slightly weaker than that of PF74” and 3.5 ± 0.6 µM corresponded to half-maximal inhibition (IC50). The “stabilization of HIV-1 CANC compared with PF74 (in words)” value at HIV-1 CANC [3] was “only slightly less active in stabilization than PF74”. Besides, the “effect on HIV-1 infectivity / uncoating in CsA-washout assay (in words)” value (from here on “effect on HIV-1 infectivity / uncoating”) in the series with HIV-1 [4] was “strongest impact on HIV-1 infectivity in OMK cells at the early stage of HIV-1 infection”.

Take `COc1ccc2c(c1)c(CC(=O)N[C@@H](Cc1ccccc1)C(=O)N(C)c1ccccc1)c(C)n2C(=O)c1ccc(Cl)cc1` [D2, (S)-2-(2-(1-(4-chlorobenzoyl)-5-methoxy-2-methyl-1H-indol-3-yl)acetamido)-N-methyl--N,3-diphenylpropanamide]: the CC50 at 24 h in series [1] is over 40 µM. The IC50 with HIV-1 [2] worked out at 8 ± 1.2 µM. Moreover, on HIV-1 CANC [3], the “stabilization of HIV-1 CANC compared with PF74 (in words)” value is “lower effect on HIV-1 CANC stability than PF74” and the “TEM of CANC particles after incubation in disassembly buffer” value (shortened to “TEM of CANC particles after incubation”) is listed as “mainly disassembled material”.

`CC(C)Cc1ccc([C@@H](C)C(=O)N[C@@H](Cc2ccccc2)C(=O)N(C)c2ccccc2)cc1` [D4R, (S)-2-((R)-2-(4-isobutylphenyl)propanamido)-N-methyl-N,3-diphenylpropanamide] registered a CC50 at 24 h in series [1] of 27 ± 3.5 µM. Further, the IC50 with HIV-1 [2] is over 20 µM. On HIV-1 CANC [3], the “stabilization of HIV-1 CANC compared with PF74 (in words)” value is “lower effect on HIV-1 CANC stability than PF74” and the “TEM of CANC particles after incubation” value was “mainly disassembled material”.

As for `CN(C(=O)[C@H](Cc1ccccc1)NC(=O)[C@@H]1Cc2ccccc2C(=O)N1)c1ccccc1` [D7, (S)-N-((S)-1-(methyl(phenyl)amino)-1-oxo-3-phenylpropan-2-yl)-1-oxo-1,2,3,4--tetrahydroisoquinoline-3-carboxamide], the “TEM phenotype of CANC assembled in presence of inhibitor” value (“TEM phenotype … of inhibitor” for short) at HIV-1 CANC [5] was “long, tubular structures”. Moreover, in series [1], the CC50 at 24 h was over 40 µM. In the series on HIV-1 [2], the IC50 was over 20 µM. Besides, at HIV-1 CANC [3], the “stabilization of HIV-1 CANC compared with PF74 (in words)” value was “lower effect on HIV-1 CANC stability than PF74” and the “TEM of CANC particles after incubation” value is given as “mainly disassembled material”.

For `CN(C(=O)[C@H](Cc1ccccc1)NC(=O)[C@H]1Cc2ccccc2C(=O)N1C)c1ccccc1` [D8R, (R)-2-methyl-N-((S)-1-(methyl(phenyl)amino)-1-oxo-3-phenylpropan-2-yl)-1-oxo--1,2,3,4-tetrahydroisoquinoline-3-carboxamide], the CC50 at 24 h in series [1] is over 40 µM. Moreover, in the series with HIV-1 [2], the “inhibitory activity against HIV-1 compared with PF74 (in words)” value is reported as “only slightly weaker than that of PF74” and the IC50 came out at 4.5 ± 1.5 µM. On HIV-1 CANC [3], the “stabilization of HIV-1 CANC compared with PF74 (in words)” value is on record as “lower effect on HIV-1 CANC stability than PF74” and the “TEM of CANC particles after incubation” value is “mainly disassembled material”. Besides, the “effect on HIV-1 infectivity / uncoating” value in the series on HIV-1 [4] is “major effect”.

In series [1], `CN(C(=O)[C@H](Cc1ccccc1)NC(=O)[C@@H]1Cc2ccccc2C(=O)N1C)c1ccccc1` [D8S, (S)-2-methyl-N-((S)-1-(methyl(phenyl)amino)-1-oxo-3-phenylpropan-2-yl)-1-oxo--1,2,3,4-tetrahydroisoquinoline-3-carboxamide] showed a CC50 at 24 h of over 40 µM. The half-maximal inhibitory concentration (IC50) with HIV-1 [2] was over 20 µM. Moreover, on HIV-1 CANC [3], the “stabilization of HIV-1 CANC compared with PF74 (in words)” value is given as “lower effect on HIV-1 CANC stability than PF74” and the “TEM of CANC particles after incubation” value is given as “mainly disassembled material”.

With `CN(C(=O)[C@H](Cc1ccccc1)NC(=O)Cc1n[nH]c2ccccc12)c1ccccc1` [D9, (S)-2-(2-(1H-indazol-3-yl)acetamido)-N-methyl-N,3-diphenylpropanamide], the CC50 at 24 h in series [1] was over 40 µM. Further, in the series with HIV-1 [2], the “inhibitory activity against HIV-1 compared with PF74 (in words)” value is “only slightly weaker than that of PF74” and the half-inhibitory concentration (IC50) turned out to be 3.4 ± 0.9 µM. In addition, on HIV-1 CANC [3], the “stabilization of HIV-1 CANC compared with PF74 (in words)” value was “more potent stabilizers than PF74”, the “relative stability of HIV-1 CANC assemblies in disassembly buffer” value (“relative stability” for short) is recorded as 80% and the “TEM of CANC particles after incubation” value was “intact CANC particles”. Also, the “effect on HIV-1 infectivity / uncoating” value in the series with HIV-1 [4] is reported as “highly active during the first two hours post infection, then its activity dropped”.

Take `CN(C(=O)[C@H](Cc1ccccc1)NC(=O)NCc1nc2ccccc2[nH]1)c1ccccc1` [D10, (S)-2-(3-((1H-benzo[d]imidazol-2-yl)methyl)ureido)-N-methyl-N,3-diphenylpropanamide]: the “TEM phenotype … of inhibitor” value at HIV-1 CANC [5] was “predominant formation of cone-like and shorter tubular structures”. For the same compound, the half-maximal cytotoxic concentration (CC50) in series [6] is under 3 µM. The CC50 at 24 h in series [1] amounted to 10 ± 1.6 µM. For the same compound, in the series on HIV-1 [2], the “inhibitory activity against HIV-1 compared with PF74 (in words)” value was “better inhibitory activity against HIV-1 than PF74” and the IC50 came to 0.5 ± 0.3 µM. On HIV-1 CANC [3], the “stabilization of HIV-1 CANC compared with PF74 (in words)” value is “more potent stabilizers than PF74”, the “relative stability” value is listed as 90% and the “TEM of CANC particles after incubation” value is “intact CANC particles”.

For the compound `Cc1[nH]c2ccccc2c1CC(=O)N[C@@H](Cc1ccccc1)C(=O)N(C)c1ccccc1` [PF74], the “effect on assembly of mature-like CANC particles (in words)” value at HIV-1 CANC [5] (CANC without inhibitor = 100%) is reported as “no effect”. Further, the “TEM phenotype … of inhibitor” value on HIV-1 CANC [5] was “predominant formation of cone-like and shorter tubular structures”. Also, the CC50 at 24 h in series [1] was over 40 µM. The half-inhibitory concentration (IC50) in the series on HIV-1 [2] is 1.75 ± 0.5 µM. Further, at HIV-1 CANC [3], the “relative stability” value is recorded as “about 60%” and the “TEM of CANC particles after incubation” value is recorded as “intact CANC particles”. Besides, the “effect on HIV-1 infectivity / uncoating” value in the series on HIV-1 [4] is recorded as “strongest impact on HIV-1 infectivity in OMK cells at the early stage of HIV-1 infection”.
